Measurements as given in patent US8901345B2, “Process for preparation of optically active diamine derivative salt” (Daiichi Sankyo Company, Limited, priority 2010, dated 2014).
Entries after “also recorded” stand apart in the source; their conditions may differ. Where a name gives a salt, the structure may show the parent alone.

Legend:
Assay type in all cases: physicochemical
[1] = Crystal form transformation (solid form stability) of crystal polymorphs; conditions: for transformation of anhydrous crystals to monohydrate crystals: stirring at 25° C., depending on the percentage water content of the mother liquor, oxalate
Experimental: The Form 2 anhydrous crystals were also found to be excellent in operability such as filtration performance. Powder x-ray diffraction diagrams of the Form 1 and Form 2 anhydrous crystals of compound (1) are shown in FIGS. 1 and 2, respectively, and their diffraction diagrams based on thermal analysis are shown in FIGS. 5 and 6, respectively.
Compound (1a) was treated with anhydrous oxalic acid in 6% hydrous acetonitrile to obtain two crystal polymorphs of monohydrate crystals of the title compound represented by formula (1b) (this production method is described in Example 3 below). Powder x-ray diffraction diagrams of the Form 1 and Form 2 monohydrate crystals are shown in FIGS. 3 and 4, respectively, and their diffraction diagrams based on thermal analysis are shown in FIGS. 7 and 8, respectively.

[2] = Hygroscopicity of crystal polymorphs; conditions: among the crystal polymorphs of anhydrous crystals of compound (1)
[3] = Comparison of water solubility of crystals in hydrous toluene/acetonitrile; conditions: compared with monohydrate crystals of (1b) in the cis-form; water added to a 13% toluene/acetonitrile solution to change percentage water content
Experimental: Water was added to a 13% toluene/acetonitrile solution to change the percentage water content to compare water solubility between the monohydrate crystals of the compound represented by formula (1b) and the monohydrate crystals of the trans-isomer compound represented by formula (1b-trans).

For `CN(C)C(=O)[C@H]1CC[C@H](N)[C@H](NC(=O)OC(C)(C)C)C1` [Form 1 monohydrate crystals, tert-butyl {(1R,2S,5S)-2-amino-5-[(dimethylamino)carbonyl]cyclohexyl}carbamate oxalate monohydrate], the “crystal transformation when left standing” value ([1]; left at room temperature for approximately 2 hours) was “transformed to Form 2 monohydrate crystals”.
For `CN(C)C(=O)[C@H]1CC[C@H](N)[C@H](NC(=O)OC(C)(C)C)C1` [Form 1 anhydrous crystals, tert-butyl {(1R,2S,5S)-2-amino-5-[(dimethylamino)carbonyl]cyclohexyl}carbamate oxalate], the “transformation of anhydrous crystals to monohydrate crystals” value [1] was “transformed to monohydrate crystals”.
In the case of `CN(C)C(=O)[C@H]1CC[C@H](N)[C@H](NC(=O)OC(C)(C)C)C1` [Form 2 anhydrous crystals, tert-butyl {(1R,2S,5S)-2-amino-5-[(dimethylamino)carbonyl]cyclohexyl}carbamate oxalate], the hygroscopicity [2] is reported as “much less hygroscopic” and the “transformation of anhydrous crystals to monohydrate crystals” value [1] is reported as “hardly transformed to monohydrate crystals”.
With `CN(C)C(=O)[C@H]1CC[C@@H](N)[C@H](NC(=O)OC(C)(C)C)C1` [(1b-trans)] the water solubility [3] was “highly water-soluble; also recorded: more water-soluble”.
